Results taken from patent US20060229255A1, “Identification of n-alkylglycine trimers for induction of apoptosis” (priority 2003, published 2006).

Assays:
Assay type in all cases: cell-based, human
Bcl-xL = assay: Western blot of Bcl-xL phosphorylation; settings: HT29 cells, 3, 6 and 24 h
Protocol: (§1) Western blotting. Floating and adherent cells were harvested and pellets were resuspended in RIPA buffer (50 mM Tris/HCl 7.4, 250 mM NaCl, 0,5% Igepal CA630, 5 mM EDTA, 1 mM PMSF, 10 μg/ml leupeptin, 50 mM NaF, 0.1 mM Na3VO4) or Deoxycholate buffer (10 mM phosphate buffer 7.4, […] NaCl, 0.5% Deoxycholate, 1% Igepal, 0.1% SDS, 1 mM PMSF). Protein concentration was determined with BCA Protein Assay Kit (Pierce) for RIPA extracts or Bradford assay (BioRad) for Deoxycholate extracts. Total protein (20-30 μg/lane) were separated by SDS-PAGE, transferred to PVDF membranes (Gellman), and probed with antibodies against Bcl-xL (Transduction); Bax (Santa Cruz); JNK (Santa Cruz); phospho-JNK (Cell Signaling); pRb (Pharmingen); pRb-phospho Ser780 (Cell Signalling); p130 (Santa Cruz); p107 (Santa Cruz); Cdk2 (Santa Cruz); p27^Kip1 (Santa Cruz); p21^Cip1 (Santa Cruz); actin (Sigma); or tubulin (ICN) and developed with ECL system (AmershamPharmacia biotech)
(§2) FIG. 6. (A) JNK is activated after N13-13-10C treatment. HT29 cells were treated for 1, 3, 6 and 24 h with N13-13-10C (35 μM), harvested and immunoblotted to assess activation of SAP/JNK MAP kinase. Western blot was first probed with the JNK-phosphor specific antibody, was stripped and reprobed with the pan-JNK antibody and actin to normalize total protein level. […]

Bax = assay: Western blot of Bax; settings: HT29 cells
Protocol: as §1, §2

HT29 cells = assay: Annexin V-FITC detection assay; settings: HT29, 35 μM, 40 h treatment
Protocol: Annexin V assay. Treated cells were harvested with EDTA 0.02% in Hank's Balanced Salt Solution (HBSS), washed in HBSS then in PBS (phosphate buffered saline) containing 1% BSA (Bovine serum albumine) and finally resuspended in Annexin V incubation buffer (10 mM HEPES 7.4; 140 mM NaCl; 2.5 mM CaCl2) containing 1% BSA. 10^5 cells were incubated with 5 μl Annexin-V-FITC (Bender MedSystems) for 1 h at room temperature and in the dark. Dead cells were stained with Propidium Iodide (PI) at 2 μg/ml. The analysis was immediately performed by flow cytometry.
FIG. 5. Detection of early apoptosis. Annexin V assay after 40 h of treatment with DMSO (right panel), N13-13-10C, 35 µM (central panel), or Taxol, 11 nM (left panel). HT29 treated cells were stained with Annexin V-FITC and PI and subjected to flow cytometry. Fluorescence dot blots of annexin V positive (vertical axis) and PI positive (horizontal axis, logarithmic values) cells are shown. Cell distribution expressed as percentage of the population is indicated: early apoptotic cells in quadrant 1, Q1 (AnV+/IP−); dead cells in Q2 (AnV+/IP+); living cells in Q3 (AnV−/IP−); necrotic cells in Q4 (AnV−/IP+).

JNK = assay: Western blot with JNK-phosphorylation specific antibody; settings: HT29 cells
Protocol: as §1, §2

[1] = test system: pRb, p130, p107, p27kip1, p21Cip1; assay: Western blot of G1 checkpoint proteins in synchronized T98 g cells
Protocol: as §1
FIG. 8. Expression of protein involved in G0/G1 checkpoint. (A.) HT29 cells were treated for 1, 3, 6 and 24 h with N10-13-10C (40 μM) or N13-13-10C (35 µM), harvested and immunoblotted to assess total pRb levels or Cdk4 specific phosphorylation at pRb-Ser^780 (PpRb). Western blot was first probed with the pRb-Ser^780 phosphorylation specific antibody, was stripped and reprobed with the pan-pRb antibody and tubulin to normalize total protein level. (B.) T98 g cells were synchronized by serum starvation and reinitiated with 10% FCS and DMSO (C), N13-13-10C (100 μM) or Taxol (30 nM) for 15, 17, 24 or 29 h. Western blot of total protein extracts was probed with antibodies to p130, pRb, p107, Cdk2, cycA, p27, p21 and actin. Unphosphorylated, hypophosphorylated as well as hyperphosphorylated pRb are detected (arrows). (C.) HT29 cells treated for 24 and 48 h with N13-13-10C (40 μM) or DMSO as control. Immunoblots were stained with antibodies to Cdk2, cycA, p21, p27 and actin.

Compound | Bcl-xL phosphorylation (slower migrating band) (Bcl-xL) | Bax level (Bax) | Early apoptotic cells (IP negative, Annexin V positive) (HT29 cells) [%] | Increase of early apoptotic cells with respect to control cells (HT29 cells) [fold] | Time of JNK activation (phosphorylation) (JNK) [h] | Time of p21Cip1 peak levels ([1]; T98 g, 100 μM) [h] | p27kip1 level ([1]; T98 g, after 15 h of treatment) | Total pRb levels ([1]; synchronized T98 g, 100 μM) | p107 levels ([1]; synchronized T98 g, 100 μM) | p130 phosphorylation ([1]; synchronized T98 g, 100 μM) | p130 total levels ([1]; synchronized T98 g, 100 μM) | pRb hyperphosphorylation ([1]; synchronized T98 g, 100 μM)
COc1ccc(CCN(CC(=O)N(CCc2ccccc2)CC(N)=O)C(=O)CNCCc2ccccc2)cc1 [N10-13-10C] | not observed | not increased | – | – | – | – | – | – | – | – | – | –
COc1ccc(CCNCC(=O)N(CCc2ccc(OC)cc2)CC(=O)N(CCc2ccccc2)CC(N)=O)cc1 [N13-13-10C] | – | – | 14 | 3.5 | 3 to 6 | 17 | appreciable induction | decreased total pRb levels | down regulated | remains also hypophosphorylated | total levels are increased | prevented pRb hyperphosphorylation
